Laboratory results: US12060351B2, “Thiadiazole IRAK4 inhibitors” (Gilead Sciences, Inc., priority 2018, dated 2024)

Assays:
TNFα = assay: IRAK4 Monocyte TNFα Cell Based Assay (LPS-stimulated, TR-FRET TNFα detection); parameters: species or system human; details: Homo sapiens, Monocyte, human monocytes, LPS-stimulated; Table 2 second part (compounds 33-343); read-out: EC50 MONO TNF HTRF
Procedure, shortened: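 Monocytes (5,000 cells/well) treated with compound (0.1% DMSO) for 1 hour at 37° C, then stimulated with 50 pg/ml LPS for 4 hours. TNFα in medium quantified by TR-FRET two-antibody detection after overnight room-temperature incubation. Percent of control calculated against unstimulated (0%) and LPS-stimulated (100%) cells.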

IRAK4 enzyme = target: T1, IRAK4 enzyme (Homo sapiens, UniProt Q9NWZ3); assay: IRAK4 Biochemical Assay (TR-FRET, STK1 KinEASE); details: 500 μM ATP, Table 2 second part (compounds 33-343), read-out: IC50 IRAK4-HTBS
T1 construct: purchased Carna Biosciences, Chuo-ku, Kobe, Japan
T1 sequence (Q9NWZ3 1-460): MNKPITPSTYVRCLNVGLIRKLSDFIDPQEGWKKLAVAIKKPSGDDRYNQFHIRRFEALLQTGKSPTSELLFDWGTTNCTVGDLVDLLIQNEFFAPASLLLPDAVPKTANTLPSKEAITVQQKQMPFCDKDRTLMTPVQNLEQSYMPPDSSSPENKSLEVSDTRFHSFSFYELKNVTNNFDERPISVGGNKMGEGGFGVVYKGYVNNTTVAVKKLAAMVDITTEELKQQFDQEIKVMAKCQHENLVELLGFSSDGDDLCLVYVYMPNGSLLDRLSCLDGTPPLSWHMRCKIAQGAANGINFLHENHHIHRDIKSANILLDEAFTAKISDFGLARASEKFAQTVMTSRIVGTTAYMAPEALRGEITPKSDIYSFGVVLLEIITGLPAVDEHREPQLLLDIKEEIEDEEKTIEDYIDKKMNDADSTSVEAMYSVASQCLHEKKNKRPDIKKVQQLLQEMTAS
Procedure, shortened: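 Human IRAK4 (0.75 nM) preincubated 15 min with compound and 2 μM STK1 peptide, then reacted 120 min at room temperature with 500 μM ATP in HEPES pH 7.0 buffer with MgCl2 and DTT. EDTA stop with Cryptate anti-phosphopeptide antibody and tracer, 60 min; TR-FRET read as 665/615 nm ratio.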

EC50 (TNFα) [nM] | IC50 (IRAK4 enzyme) [nM] | SMILES
4.1 | 0.7 | CC(C)Nc1cc(-c2ccc3cc(C#N)cnn23)ncc1-c1nnc(N2C[C@H]3CC[C@@H](C2)[C@@H]3NC(=O)C2(C)CCOCC2)s1 [Example 95, N-((1R,5S,8s)-3-(5-(6-(3-cyanopyrrolo[1,2-b]pyridazin-7-yl)-4-(isopropylamino)pyridin-3-yl)-1,3,4-thiadiazol-2-yl)-3-azabicyclo[3.2.1]octan-8-yl)-4-methyltetrahydro-2H-pyran-4-carboxamide]
21.7 | 0.82 | CC(C)Nc1cc(-c2ccc3cc(C#N)cnn23)ncc1-c1nnc(N2C[C@H]3CC[C@@H](C2)[C@@H]3NC(=O)C(C)(C)C(=O)O)s1 [Example 97, 3-(((1R,5S,8s)-3-(5-(6-(3-cyanopyrrolo[1,2-b]pyridazin-7-yl)-4-(isopropylamino)pyridin-3-yl)-1,3,4-thiadiazol-2-yl)-3-azabicyclo[3.2.1]octan-8-yl)amino)-2,2-dimethyl-3-oxopropanoic acid]
3.2 | 1.13 | CC(C)Nc1cc(-c2ccc3cc(C#N)cnn23)ncc1-c1nnc(N2C[C@H]3CC[C@@H](C2)[C@@H]3NC(=O)CN=S(C)(C)=O)s1 [Example 98, N-((1R,5S,8s)-3-(5-(6-(3-cyanopyrrolo[1,2-b]pyridazin-7-yl)-4-(isopropylamino)pyridin-3-yl)-1,3,4-thiadiazol-2-yl)-3-azabicyclo[3.2.1]octan-8-yl)-2-((dimethyl(oxo)-16-sulfanylidene)amino)acetamide]
2.1 | 0.8 | CC(C)Nc1cc(-c2ccc3cc(C#N)cnn23)ncc1-c1nnc(N2C[C@H]3CC[C@@H](C2)[C@@H]3NC(=O)C2CCN(C)CC2)s1 [Example 100, N-((1R,5S,8s)-3-(5-(6-(3-cyanopyrrolo[1,2-b]pyridazin-7-yl)-4-(isopropylamino)pyridin-3-yl)-1,3,4-thiadiazol-2-yl)-3-azabicyclo[3.2.1]octan-8-yl)-1-methylpiperidine-4-carboxamide]
1.2 | 0.89 | CC(C)(O)C(=O)N[C@@H]1[C@@H]2CC[C@H]1CN(c1nnc(-c3cnc(-c4ccc5cc(C#N)cnn45)cc3NC3CCOCC3)s1)C2 [Example 101, N-((1R,5S,8s)-3-(5-(6-(3-cyanopyrrolo[1,2-b]pyridazin-7-yl)-4-((tetrahydro-2H-pyran-4-yl)amino)pyridin-3-yl)-1,3,4-thiadiazol-2-yl)-3-azabicyclo[3.2.1]octan-8-yl)-2-hydroxy-2-methylpropanamide]
1.4 | 0.51 | CC(C)Nc1cc(-c2ccc3cc(C#N)cnn23)ncc1-c1nnc(N2C[C@H]3CC[C@@H](C2)[C@@H]3NC(=O)C(=O)N=S(C)(C)=O)s1 [Example 103, N1-((1R,5S,8s)-3-(5-(6-(3-cyanopyrrolo[1,2-b]pyridazin-7-yl)-4-(isopropylamino)pyridin-3-yl)-1,3,4-thiadiazol-2-yl)-3-azabicyclo[3.2.1]octan-8-yl)-N2-(dimethyl(oxo)-16-sulfanylidene)oxalamide]
4.2 | 0.98 | COC(=O)N1CCN(C(=O)N[C@@H]2[C@@H]3CC[C@H]2CN(c2nnc(-c4cnc(-c5ccc6cc(C#N)cnn56)cc4NC(C)C)s2)C3)CC1 [Example 105, methyl 4-(((1R,5S,8s)-3-(5-(6-(3-cyanopyrrolo[1,2-b]pyridazin-7-yl)-4-(isopropylamino)pyridin-3-yl)-1,3,4-thiadiazol-2-yl)-3-azabicyclo[3.2.1]octan-8-yl)carbamoyl)piperazine-1-carboxylate]
2.6 | 1.09 | CC(C)Nc1cc(-c2ccc3cc(C#N)cnn23)ncc1-c1nnc(N2C[C@H]3CC[C@@H](C2)[C@@H]3NC(=O)N2CCN(S(C)(=O)=O)CC2)s1 [Example 106, N-((1R,5S,8s)-3-(5-(6-(3-cyanopyrrolo[1,2-b]pyridazin-7-yl)-4-(isopropylamino)pyridin-3-yl)-1,3,4-thiadiazol-2-yl)-3-azabicyclo[3.2.1]octan-8-yl)-4-(methylsulfonyl)piperazine-1-carboxamide]
5.4 | 0.25 | CC(C)Nc1cc(-c2ccc3cc(C#N)cnn23)ncc1-c1nnc([C@H]2CC[C@H](NC(=O)C3CC3)CC2)s1 [Example 125, N-((1r,4r)-4-(5-(6-(3-cyanopyrrolo[1,2-b]pyridazin-7-yl)-4-(isopropylamino)pyridin-3-yl)-1,3,4-thiadiazol-2-yl)cyclohexyl)cyclopropanecarboxamide]

Second part, the compound before the results:

SMILES | EC50 (TNFα) [nM] | IC50 (IRAK4 enzyme) [nM]
CC(C)Nc1cc(-c2ccc3cc(C#N)cnn23)ncc1-c1nnc(N2C[C@H]3CC[C@@H](C2)[C@@H]3NS(C)(=O)=O)s1 [Example 58, N-((1R,5S,8s)-3-(5-(6-(3-cyanopyrrolo[1,2-b]pyridazin-7-yl)-4-(isopropylamino)pyridin-3-yl)-1,3,4-thiadiazol-2-yl)-3-azabicyclo[3.2.1]octan-8-yl)methanesulfonamide] | 9.3 | 1.88
COC(=O)N[C@@H]1[C@@H]2CC[C@H]1CN(c1nnc(-c3cnc(-c4ccc5cc(C#N)cnn45)cc3NC(C)C)s1)C2 [Example 59, methyl ((1R,5S,8s)-3-(5-(6-(3-cyanopyrrolo[1,2-b]pyridazin-7-yl)-4-(isopropylamino)pyridin-3-yl)-1,3,4-thiadiazol-2-yl)-3-azabicyclo[3.2.1]octan-8-yl)carbamate] | 14.7 | 1.97
CC(C)Nc1cc(-c2ccc3cc(C#N)cnn23)ncc1-c1nnc(N2C[C@H]3CC[C@@H](C2)[C@@H]3N)s1 [Example 60, 7-(5-(5-((1R,5S,8s)-8-amino-3-azabicyclo[3.2.1]octan-3-yl)-1,3,4-thiadiazol-2-yl)-4-(isopropylamino)pyridin-2-yl)pyrrolo[1,2-b]pyridazine-3-carbonitrile] | 8.5 | 0.97
CC(C)Nc1cc(-c2ccc3cc(C#N)cnn23)ncc1-c1nnc(N2C[C@H]3CC[C@@H](C2)[C@@H]3NC(=O)C(C)(C)O)s1 [Example 85, N-((1R,5S,8s)-3-(5-(6-(3-cyanopyrrolo[1,2-b]pyridazin-7-yl)-4-(isopropylamino)pyridin-3-yl)-1,3,4-thiadiazol-2-yl)-3-azabicyclo[3.2.1]octan-8-yl)-2-hydroxy-2-methylpropanamide] | 3.3 | 1.04
C[C@H](C#N)Nc1cc(-c2ccc3cc(C#N)cnn23)ncc1-c1nnc(N2C[C@H]3CC[C@@H](C2)[C@@H]3NC(=O)C(C)(C)O)s1 [Example 86, N-((1R,5S,8S)-3-(5-(4-(((R)-1-cyanoethyl)amino)-6-(3-cyanopyrrolo[1,2-b]pyridazin-7-yl)pyridin-3-yl)-1,3,4-thiadiazol-2-yl)-3-azabicyclo[3.2.1]octan-8-yl)-2-hydroxy-2-methylpropanamide] | 0.6 | 0.65
CC(C)(O)C(=O)N[C@@H]1[C@@H]2CC[C@H]1CN(c1nnc(-c3cnc(-c4ccc5cc(C#N)cnn45)cc3NC3COC3)s1)C2 [Example 87, N-((1R,5S,8s)-3-(5-(6-(3-cyanopyrrolo[1,2-b]pyridazin-7-yl)-4-(oxetan-3-ylamino)pyridin-3-yl)-1,3,4-thiadiazol-2-yl)-3-azabicyclo[3.2.1]octan-8-yl)-2-hydroxy-2-methylpropanamide] | 2.1 | 0.6
CC(C)Nc1cc(-c2ccc3cc(C#N)cnn23)ncc1-c1nnc(N2C[C@H]3CC[C@@H](C2)[C@@H]3NC(=O)[C@H]2C[C@](C)(O)C2)s1 [Example 92, (1r,3R)-N-((1R,5S,8s)-3-(5-(6-(3-cyanopyrrolo[1,2-b]pyridazin-7-yl)-4-(isopropylamino)pyridin-3-yl)-1,3,4-thiadiazol-2-yl)-3-azabicyclo[3.2.1]octan-8-yl)-3-hydroxy-3-methylcyclobutane-1-carboxamide] | 5 | 1.72
CC(C)Nc1cc(-c2ccc3cc(C#N)cnn23)ncc1-c1nnc(N2C[C@H]3CC[C@@H](C2)[C@@H]3NC(=O)[C@H]2C[C@@](C)(O)C2)s1 [Example 93, (1s,3S)-N-((1R,5S,8s)-3-(5-(6-(3-cyanopyrrolo[1,2-b]pyridazin-7-yl)-4-(isopropylamino)pyridin-3-yl)-1,3,4-thiadiazol-2-yl)-3-azabicyclo[3.2.1]octan-8-yl)-3-hydroxy-3-methylcyclobutane-1-carboxamide] | 5.9 | 1.78
CC(C)Nc1cc(-c2ccc3cc(C#N)cnn23)ncc1-c1nnc(N2C[C@H]3CC[C@@H](C2)[C@@H]3NC(=O)C2(C)COC2)s1 [Example 94, N-((1R,5S,8s)-3-(5-(6-(3-cyanopyrrolo[1,2-b]pyridazin-7-yl)-4-(isopropylamino)pyridin-3-yl)-1,3,4-thiadiazol-2-yl)-3-azabicyclo[3.2.1]octan-8-yl)-3-methyloxetane-3-carboxamide] | 4 | 0.9
